This assay has as its target T1, Human PD-L1/PD-1 (Homo sapiens, UniProt Q9NZQ7).
T1 construct: TVMV protease cleavage site (C); made in house; host or cells: HEK293T cells
The experiment in a line: HTRF Human PD-L1/PD-1 binding assay (PD-1-Ig/PD-L1-His). Particulars: PD-L1-His 10 nM, PD-1-Ig 20 nM. Summed up: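 Compound preincubated 15 min with PD-L1-His (10 nM final), then PD-1-Ig (20 nM final) added for 15 min in dPBS with 0.1% BSA and 0.05% Tween-20. Detection by Eu-cryptate anti-Ig (1 nM) and APC anti-His (20 nM) after 30 min; 665/620 nm HTRF ratio. Proteins expressed in HEK293T.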

The mark [1] stands for this setting: class symbol, read-out: HTRF Human PD-L1/PD-1 Binding Assay IC50 Range.

Read-outs that look alike come from different tables or passages of the source. Where a SMILES comes first, the peptide text is derived from it. Bridges are numbered along the chain shown (N, C = ends). [ ]: non-standard residue; d: D form. Trp(1-CH2COOH) = N[C@@H](Cc1cn(CC(=O)O)c2ccccc12)C(=O)O; Bta = N[C@@H](Cc1csc2ccccc12)C(=O)O; Hyp = O=C(O)[C@@H]1C[C@@H](O)CN1; NMeE = CN[C@@H](CCC(=O)O)C(=O)O; NMeL = CN[C@@H](CC(C)C)C(=O)O; NMeNle = CCCC[C@H](NC)C(=O)O; NMeA = CN[C@@H](C)C(=O)O; Dab = NCC[C@H](N)C(=O)O; Dap = NC[C@H](N)C(=O)O; Sar = CNCC(=O)O

T1 sequence (Q9NZQ7 with tags, fused parts or gaps): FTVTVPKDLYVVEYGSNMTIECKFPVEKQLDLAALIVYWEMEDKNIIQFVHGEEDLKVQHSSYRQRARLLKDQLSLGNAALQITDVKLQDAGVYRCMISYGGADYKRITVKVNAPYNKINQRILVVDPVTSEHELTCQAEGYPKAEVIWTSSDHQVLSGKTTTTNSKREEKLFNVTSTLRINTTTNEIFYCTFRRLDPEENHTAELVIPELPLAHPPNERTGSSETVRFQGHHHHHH

As for `CCCC[C@H]1C(=O)N(C)[C@@H](CCCC)C(=O)N[C@@H](CCC(=O)O)C(=O)N[C@H](C(=O)NCC(N)=O)CSCC(=O)N[C@@H](Cc2ccc(O)cc2)C(=O)N(C)[C@@H](C)C(=O)N[C@@H](CC(N)=O)C(=O)N2CCC[C@H]2C(=O)N[C@@H](CO)C(=O)N[C@@H](CC(C)C)C(=O)N2C[C@H](O)C[C@H]2C(=O)N[C@@H](Cc2c[nH]c3ccccc23)C(=O)N[C@@H](CCN)C(=O)N[C@@H](Cc2c[nH]c3ccccc23)C(=O)N1C` [Example 5247] ({CH2CO}-Y[NMeA]NPSL[Hyp]W[Dab]W[NMeNle][NMeNle]ECG-NH2; thioether N-14), the IC50 under setting [1] was in the range of 1 to 9.9 nM.

Consider `CCCC[C@H]1C(=O)N(C)[C@@H](CCCC)C(=O)N[C@@H](CC(C)C)C(=O)N[C@H](C(=O)NCC(N)=O)CSCC(=O)N[C@@H](Cc2ccc(O)cc2)C(=O)N(C)[C@@H](C)C(=O)N[C@@H](CC(N)=O)C(=O)N2CCC[C@H]2C(=O)N[C@H](C)C(=O)N[C@@H](CCC(=O)O)C(=O)N2C[C@H](O)C[C@H]2C(=O)N[C@@H](Cc2c[nH]c3ccccc23)C(=O)N[C@@H](CCN)C(=O)N[C@@H](Cc2csc3ccccc23)C(=O)N1C` [Example 5248] ({CH2CO}-Y[NMeA]NP[dA]E[Hyp]W[Dab][Bta][NMeNle][NMeNle]LCG-NH2; thioether N-14), for which the IC50 under setting [1] fell in the range of 1 to 9.9 nM.

As for `CCCC[C@H]1C(=O)N(C)[C@@H](CCC(=O)O)C(=O)N[C@@H](CN)C(=O)N[C@H](C(=O)NCC(N)=O)CSCC(=O)N[C@@H](Cc2ccc(O)cc2)C(=O)N(C)[C@@H](C)C(=O)N[C@@H](CC(N)=O)C(=O)N2CCC[C@H]2C(=O)N[C@@H](Cc2c[nH]cn2)C(=O)N[C@@H](CCC(=O)O)C(=O)N2C[C@H](O)C[C@H]2C(=O)N[C@@H](Cc2c[nH]c3ccccc23)C(=O)N[C@@H](CCN)C(=O)N[C@@H](Cc2c[nH]c3ccccc23)C(=O)N1C` [Example 5249] ({CH2CO}-Y[NMeA]NPHE[Hyp]W[Dab]W[NMeNle][NMeE][Dap]CG-NH2; thioether N-14), the IC50 under setting [1] lay within 10 to 99.9 nM.

In the case of `CCCC[C@H]1C(=O)N(C)[C@@H](CCCC)C(=O)N[C@@H](CCC(=O)O)C(=O)N[C@H](C(=O)NCC(N)=O)CSCC(=O)N[C@@H](Cc2ccc(O)cc2)C(=O)N(C)[C@@H](C)C(=O)N[C@@H](CC(N)=O)C(=O)N2CCC[C@H]2C(=O)N[C@@H](CO)C(=O)N[C@@H](CCC(N)=O)C(=O)N2C[C@H](O)C[C@H]2C(=O)N[C@@H](Cc2c[nH]c3ccccc23)C(=O)N[C@@H](CCN)C(=O)N[C@@H](Cc2c[nH]c3ccccc23)C(=O)N1C` [Example 5251] ({CH2CO}-Y[NMeA]NPSQ[Hyp]W[Dab]W[NMeNle][NMeNle]ECG-NH2; thioether N-14), the IC50 under setting [1] fell in the range of 1 to 9.9 nM.

Take `CCCC[C@H]1C(=O)N(C)[C@@H](CCCC)C(=O)N[C@@H](CCC(=O)O)C(=O)N[C@H](C(=O)NCC(N)=O)CSCC(=O)N[C@@H](Cc2ccc(O)cc2)C(=O)N(C)[C@@H](C)C(=O)N[C@@H](CC(=O)O)C(=O)N2CCC[C@H]2C(=O)N[C@@H](CO)C(=O)N[C@@H](CCC(=O)O)C(=O)N2C[C@H](O)C[C@H]2C(=O)N[C@@H](Cc2c[nH]c3ccccc23)C(=O)N[C@@H](CCN)C(=O)N[C@@H](Cc2c[nH]c3ccccc23)C(=O)N1C` [Example 5252] ({CH2CO}-Y[NMeA]DPSE[Hyp]W[Dab]W[NMeNle][NMeNle]ECG-NH2; thioether N-14): the IC50 under setting [1] fell in the range of 1 to 9.9 nM.

Consider `CCCC[C@H]1C(=O)N(C)[C@@H](CCCC)C(=O)N[C@@H](CN)C(=O)N[C@H](C(=O)NCC(N)=O)CSCC(=O)N[C@@H](Cc2ccc(O)cc2)C(=O)N(C)[C@@H](C)C(=O)N[C@@H](CC(N)=O)C(=O)N2CCC[C@H]2C(=O)N[C@@H](CN)C(=O)N[C@@H](CCC(N)=O)C(=O)N2C[C@H](O)C[C@H]2C(=O)N[C@@H](Cc2c[nH]c3ccccc23)C(=O)N[C@@H](CO)C(=O)N[C@@H](Cc2cn(CC(=O)O)c3ccccc23)C(=O)N1C` [Example 5253] ({CH2CO}-Y[NMeA]NP[Dap]Q[Hyp]WS[Trp(1-CH2COOH)][NMeNle][NMeNle][Dap]CG-NH2; thioether N-14), for which the IC50 under setting [1] is 1 to 9.9 nM.

Turning to `CCCC[C@H]1C(=O)N(C)[C@@H](CCCC)C(=O)N[C@@H](CCC(=O)O)C(=O)N[C@H](C(=O)NCC(N)=O)CSCC(=O)N[C@@H](Cc2ccc(O)cc2)C(=O)N(C)[C@@H](C)C(=O)N[C@@H](CC(=O)O)C(=O)N2CCC[C@H]2C(=O)N[C@@H](CO)C(=O)N[C@@H](CC(C)C)C(=O)N2C[C@H](O)C[C@H]2C(=O)N[C@@H](Cc2c[nH]c3ccccc23)C(=O)N[C@@H](CCC(=O)O)C(=O)N[C@@H](Cc2c[nH]c3ccccc23)C(=O)N1C` [Example 5254] ({CH2CO}-Y[NMeA]DPSL[Hyp]WEW[NMeNle][NMeNle]ECG-NH2; thioether N-14), the IC50 under setting [1] lay within 10 to 99.9 nM.

As for `CCCC[C@H]1C(=O)N(C)[C@@H](CCCC)C(=O)N[C@@H](CCC(=O)O)C(=O)N[C@H](C(=O)NCC(N)=O)CSCC(=O)N[C@@H](Cc2ccc(O)cc2)C(=O)N(C)[C@@H](C)C(=O)N[C@@H](CC(=O)O)C(=O)N2CCC[C@H]2C(=O)N[C@@H](Cc2c[nH]cn2)C(=O)N[C@@H](CCCCNC(C)=O)C(=O)N2C[C@H](O)C[C@H]2C(=O)N[C@@H](Cc2c[nH]c3ccccc23)C(=O)N[C@@H](CO)C(=O)N[C@@H](Cc2c[nH]c3ccccc23)C(=O)N1C` [Example 5255] ({CH2CO}-Y[NMeA]DPHK(Ac)[Hyp]WSW[NMeNle][NMeNle]ECG-NH2; thioether N-14), the IC50 under setting [1] is 1 to 9.9 nM.

For `CCCC[C@H]1C(=O)N(C)[C@@H](CCCC)C(=O)N[C@@H](CCCNC(=N)N)C(=O)N[C@H](C(=O)NCC(N)=O)CSCC(=O)N[C@@H](Cc2ccc(O)cc2)C(=O)N(C)[C@@H](C)C(=O)N[C@@H](CC(=O)O)C(=O)N2CCC[C@H]2C(=O)N[C@@H](Cc2c[nH]cn2)C(=O)N[C@@H](CCCCN)C(=O)N2C[C@H](O)C[C@H]2C(=O)N[C@@H](Cc2c[nH]c3ccccc23)C(=O)N[C@@H](CCCCN)C(=O)N[C@@H](Cc2csc3ccccc23)C(=O)N1C` [Example 5256], under setting [1], the IC50 is 10 to 99.9 nM.

As to `CCCC[C@H]1C(=O)N(C)[C@@H](CCCC)C(=O)N[C@@H](CCC(=O)O)C(=O)N[C@H](C(=O)NCC(N)=O)CSCC(=O)N[C@@H](Cc2ccc(O)cc2)C(=O)N(C)[C@@H](C)C(=O)N[C@@H](CC(=O)O)C(=O)N2CCC[C@H]2C(=O)N[C@@H](CN)C(=O)N[C@@H](CC(C)C)C(=O)N2C[C@H](O)C[C@H]2C(=O)N[C@@H](Cc2c[nH]c3ccccc23)C(=O)N[C@@H](CCC(=O)O)C(=O)N[C@@H](Cc2c[nH]c3ccccc23)C(=O)N1C` [Example 5257] ({CH2CO}-Y[NMeA]DP[Dap]L[Hyp]WEW[NMeNle][NMeNle]ECG-NH2; thioether N-14), the IC50 under setting [1] fell in the range of 10 to 99.9 nM.

For the molecule `CCCC[C@H]1C(=O)N(C)[C@@H](CCCC)C(=O)N[C@@H](CC(C)C)C(=O)N[C@H](C(=O)NCC(N)=O)CSCC(=O)N[C@@H](Cc2ccc(O)cc2)C(=O)N(C)[C@@H](C)C(=O)N[C@@H](CC(N)=O)C(=O)N2CCC[C@H]2C(=O)N[C@@H](CN)C(=O)N[C@@H](CCC(N)=O)C(=O)N2C[C@H](O)C[C@H]2C(=O)N[C@@H](Cc2c[nH]c3ccccc23)C(=O)N[C@@H](CCN)C(=O)N[C@@H](Cc2cn(CC(=O)O)c3ccccc23)C(=O)N1C` [Example 5259] ({CH2CO}-Y[NMeA]NP[Dap]Q[Hyp]W[Dab][Trp(1-CH2COOH)][NMeNle][NMeNle]LCG-NH2; thioether N-14), under setting [1], the IC50 was in the range of 1 to 9.9 nM.

Consider `CCCC[C@H]1C(=O)N(C)[C@@H](CCCC)C(=O)N[C@@H](CCC(=O)O)C(=O)N[C@H](C(=O)NCC(N)=O)CSCC(=O)N[C@@H](Cc2ccc(O)cc2)C(=O)N(C)[C@@H](C)C(=O)N[C@@H](CC(=O)O)C(=O)N2CCC[C@H]2C(=O)N[C@@H](CO)C(=O)N[C@@H](CCC(=O)O)C(=O)N2C[C@H](O)C[C@H]2C(=O)N[C@@H](Cc2c[nH]c3ccccc23)C(=O)N[C@@H](CCC(=O)O)C(=O)N[C@@H](Cc2c[nH]c3ccccc23)C(=O)N1C` [Example 5260] ({CH2CO}-Y[NMeA]DPSE[Hyp]WEW[NMeNle][NMeNle]ECG-NH2; thioether N-14), for which, under setting [1], the IC50 fell in the range of 1 to 9.9 nM.

With `CCCC[C@H]1C(=O)N(C)[C@@H](CCCC)C(=O)N[C@@H](CC(C)C)C(=O)N[C@H](C(=O)NCC(N)=O)CSCC(=O)N[C@@H](Cc2ccc(O)cc2)C(=O)N(C)[C@@H](C)C(=O)N[C@@H](CC(N)=O)C(=O)N2CCC[C@H]2C(=O)N(C)CC(=O)N[C@@H](CCC(N)=O)C(=O)N2C[C@H](O)C[C@H]2C(=O)N[C@@H](Cc2c[nH]c3ccccc23)C(=O)N[C@@H](CO)C(=O)N[C@@H](Cc2c[nH]c3ccccc23)C(=O)N1C` [Example 5262] ({CH2CO}-Y[NMeA]NP[Sar]Q[Hyp]WSW[NMeNle][NMeNle]LCG-NH2; thioether N-14), where the note is “read-out: HTRF Human PD-L1/PD-1 Binding Assay IC50”, the IC50 came to 101 nM.

In the case of `CCCC[C@H]1C(=O)N(C)[C@@H](CCCC)C(=O)N(C)CC(=O)N[C@H](C(=O)NCC(N)=O)CSCC(=O)N[C@@H](Cc2ccc(O)cc2)C(=O)N(C)[C@@H](C)C(=O)N[C@@H](CC(N)=O)C(=O)N2CCC[C@H]2C(=O)N[C@@H](Cc2c[nH]cn2)C(=O)N[C@@H](CCC(N)=O)C(=O)N2C[C@H](O)C[C@H]2C(=O)N[C@@H](Cc2c[nH]c3ccccc23)C(=O)N[C@@H](CO)C(=O)N[C@@H](Cc2c[nH]c3ccccc23)C(=O)N1C` [Example 5263] ({CH2CO}-Y[NMeA]NPHQ[Hyp]WSW[NMeNle][NMeNle][Sar]CG-NH2; thioether N-14), the IC50 under setting [1] was 1000 to 10000 nM.

For `CCCC[C@H]1C(=O)N(C)[C@@H](CCCC)C(=O)N(C)[C@@H](CC(C)C)C(=O)N[C@H](C(=O)NCC(N)=O)CSCC(=O)N[C@@H](Cc2ccc(O)cc2)C(=O)N(C)[C@@H](C)C(=O)N[C@@H](CC(N)=O)C(=O)N2CCC[C@H]2C(=O)N[C@@H](Cc2c[nH]cn2)C(=O)N[C@@H](CCC(=O)O)C(=O)N2C[C@H](O)C[C@H]2C(=O)N[C@@H](Cc2c[nH]c3ccccc23)C(=O)N[C@@H](CCN)C(=O)N[C@@H](Cc2csc3ccccc23)C(=O)N1C` [Example 5264] ({CH2CO}-Y[NMeA]NPHE[Hyp]W[Dab][Bta][NMeNle][NMeNle][NMeL]CG-NH2; thioether N-14), under setting [1], the IC50 is 1000 to 10000 nM.

The values are drawn from patent publication US10538555B2, “Macrocyclic inhibitors of the PD-1/PD-L1 and CD80(B7-1)/PD-L1 protein/protein interactions” (BRISTOL-MYERS SQUIBB COMPANY, priority 2014, dated 2020).
